For the data set the following is noted: Crystal; DTA.

Each structure is given as a SMILES string. ± gives the expanded uncertainty stated by the source.

Take `Nc1ccc(O)c(C(=O)O)c1` [5-aminosalicylic acid]: the Normal melting temperature amounted to 281.00 ± 0.5 °C.

For the origin of these results see the NIST ThermoML archive (doi:10.1021/je900646u).
